Two molecules from US20090202698A1, “OLIGOPEPTIDES FOR USE AS TASTE MODULATORS” (Nutrinova Nutrition Specialties & Food Ingredients GmbH, priority 2008, published 2009) can be followed below.

The target in this test is T1, human T1R2/T1R3 taste receptor (Homo sapiens, UniProt Q7RTX0+Q8TE23).
T1 construct: the cDNA for the receptors ht1R2 and ht1R3 and the cDNA for the blasticidin S deaminase gene have been cloned; expressed in transfected cells; host or cells: HEK293 stably expressing mouse G-alpha-15, stably transfected with the tricistronic vector pTrix-Eb-R2R3 (blasticidin selection)
T1 sequence (Q8TE23 20-839): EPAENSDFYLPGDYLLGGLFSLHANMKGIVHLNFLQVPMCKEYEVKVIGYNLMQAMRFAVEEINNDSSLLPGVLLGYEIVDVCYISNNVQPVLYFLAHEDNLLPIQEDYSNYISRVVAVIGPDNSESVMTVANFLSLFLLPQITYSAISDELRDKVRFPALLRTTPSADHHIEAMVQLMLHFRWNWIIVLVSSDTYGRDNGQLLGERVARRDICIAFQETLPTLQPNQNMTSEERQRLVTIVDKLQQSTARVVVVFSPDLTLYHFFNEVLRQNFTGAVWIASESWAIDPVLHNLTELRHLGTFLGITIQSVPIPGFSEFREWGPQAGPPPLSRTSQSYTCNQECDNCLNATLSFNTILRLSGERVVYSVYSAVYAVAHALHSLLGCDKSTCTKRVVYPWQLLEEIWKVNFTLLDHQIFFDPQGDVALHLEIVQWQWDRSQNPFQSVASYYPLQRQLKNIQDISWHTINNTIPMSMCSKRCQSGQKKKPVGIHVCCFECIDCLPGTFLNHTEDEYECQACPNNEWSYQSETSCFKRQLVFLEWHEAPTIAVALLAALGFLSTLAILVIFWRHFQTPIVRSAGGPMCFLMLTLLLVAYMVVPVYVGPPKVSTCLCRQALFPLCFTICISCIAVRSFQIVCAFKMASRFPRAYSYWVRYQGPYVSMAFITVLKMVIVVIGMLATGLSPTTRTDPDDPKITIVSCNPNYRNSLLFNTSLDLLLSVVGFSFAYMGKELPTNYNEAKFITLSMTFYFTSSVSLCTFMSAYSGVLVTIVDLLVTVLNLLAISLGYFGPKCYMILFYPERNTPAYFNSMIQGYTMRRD
T1 sequence (Q7RTX0 21-852): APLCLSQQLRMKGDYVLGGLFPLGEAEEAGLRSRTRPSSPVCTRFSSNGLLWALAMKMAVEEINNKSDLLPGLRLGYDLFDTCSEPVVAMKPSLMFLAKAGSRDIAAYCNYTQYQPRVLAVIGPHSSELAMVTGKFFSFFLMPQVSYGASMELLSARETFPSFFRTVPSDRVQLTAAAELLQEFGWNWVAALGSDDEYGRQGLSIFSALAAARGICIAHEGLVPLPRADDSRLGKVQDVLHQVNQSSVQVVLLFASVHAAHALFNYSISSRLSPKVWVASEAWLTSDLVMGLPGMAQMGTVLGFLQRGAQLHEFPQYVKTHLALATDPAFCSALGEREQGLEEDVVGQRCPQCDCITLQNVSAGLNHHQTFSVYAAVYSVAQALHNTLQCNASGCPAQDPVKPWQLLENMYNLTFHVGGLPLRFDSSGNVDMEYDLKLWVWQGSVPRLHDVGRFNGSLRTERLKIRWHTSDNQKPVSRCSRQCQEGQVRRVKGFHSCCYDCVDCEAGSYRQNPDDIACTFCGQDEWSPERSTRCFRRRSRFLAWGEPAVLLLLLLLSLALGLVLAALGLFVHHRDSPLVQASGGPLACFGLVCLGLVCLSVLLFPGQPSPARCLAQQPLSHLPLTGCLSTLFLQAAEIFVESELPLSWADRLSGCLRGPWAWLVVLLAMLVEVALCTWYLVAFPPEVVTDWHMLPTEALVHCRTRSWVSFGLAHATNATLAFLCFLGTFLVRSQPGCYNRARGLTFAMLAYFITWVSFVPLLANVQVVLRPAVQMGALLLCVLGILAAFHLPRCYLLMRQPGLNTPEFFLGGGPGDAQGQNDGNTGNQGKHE
Put plainly: Recombinant human T1R2/T1R3 taste receptor dependent calcium (Fluo-4 AM) cell based assay in stable HEK293 cells. The procedure: Fluo-4 AM assay with stable HEK293 cells—Stable cells are maintained in DMEM high-glucose medium (Invitrogen) supplemented with 10% fetal bovine serum (Biochrom) and 4 mM L-glutamine (Invitrogen). Cells for calcium imaging are maintained in DMEM low-glucose medium supplemented with 10% FBS and 1× Glutamax-1 (Invitrogen) for 48 hours before seeding. These stable cells are trypsinized after 48 hours (either with Trypsin-EDTA, Accutase or TrypLE) and seeded onto poly-D-lysine coated 96-well assay plates (Corning) at a density of 45,000 cells/well in DMEM low-glucose medium supplemented with 10% FBS and 1× Glutamax-1.
After 24 hours, the cells were loaded in 100 μl medium with additional 100 μl of 4 μM Fluo-4 (calcium sensing dye, 2 μM end concentration; Molecular Probes) in Krebs-HEPES (KH)-buffer for 1 hour. The loading reagent is then replaced by 80 μl KH-buffer per well. The Krebs-HEPES-buffer (KH-buffer) is a physiological saline solution including 1.2 mM CaCl2, 4.2 mM NaHCO3 and 10 mM HEPES.
The dye-loaded stable cells in plates were placed into a fluorescence microtiter plate reader to monitor fluorescence (excitation 488 nm, emission 520 nm) change after the addition of 20 μl KH-buffer supplemented with 5x tastants. For each trace, tastant was added 11.5 seconds after the start of the scan and mixed two times with the buffer, scanning continued for an additional 32 seconds, and data were collected every second.
Data analysis/Data recording—Calcium mobilization was quantified as the change of peak fluorescence OF) over the baseline level (F). Data were expressed as the mean S.E. of the )F/F value of replicated independent samples. The analysis was done with the software of the microtiter plate reader.
To analyze the function and activity of aladapcin the heterodimeric T1R2/T1R3 sweet taste receptor has been utilized in a calcium dependent cell based assay. T1R type taste receptors have been transfected with the multicistronic plasmid vector pTrix-Eb-R2R3 in a HEK293 cell line stably expressing the promiscuous mouse G-alpha-15 G-protein. […]

On to `CC(NC(=O)C(C)NC(=O)C(N)CCCC(N)C(N)=O)C(=O)O` (stereo not drawn) [Aladapcin, 2-[2-[(2,6-diamino-6-carbamoyl-hexanoyl)-amino]propanoylamino]propanoic acid], for which the “aladapcin activity on sweet taste receptors (activity as sweet enhancer): amplification of fructose” value (in the presence of 25 mM fructose, Fluo4-AM fluorescence increase, HEK293 cells expressing G-alpha-15, human T1R2 and T1R3, FIG. 2) is reported as “dose dependent”. The “sweetener potential (receptor activation by the compound alone)” value (without the presence of fructose (control measurement), range 0.1-25 μm, FIG. 3) is “no sweetener potential”.
As for `O=C(CO)[C@@H](O)[C@H](O)[C@H](O)CO` [fructose, reference compound], the “activation of the sweet taste receptors by the sweetener alone” value (25 mM fructose (4.5 g/l), preexaminations) was “barely activating”.
